Read-outs that look alike come from different tables or passages of the source.
Experiments:
in vitro [1] = assay: in vitro
From the text: (§1) Furthermore, porcine skin permeation is studied. As mentioned in the introduction, the barrier structure of the skin differs greatly from that of the mucosae. In this sense, it will be evaluated whether the mucosae modified both by lipophilic compositions and by compositions that mimic the stratum corneum could have a barrier effect similar to that of the skin.
(§2) Next, the main physicochemical properties which are important in permeability through keratin tissues, such as the skin and mucosae, and the classification to which they belong are described in detail. […] Compounds to be evaluated, physicochemical properties, and classification.
(§3) As in the previous TEWL study, sublingual mucosa and porcine skin dermatomized to a thickness of 500-700 µm are used. Kinetic diffusion studies were performed using a vertical diffusion cell (Lara Spiral, Couternon, France (1.86 cm^2 and 3 ml). The receiver fluid (RF) used was PBS:EtOH (1:1). A water bath was set at 43°C to obtain a membrane surface temperature of 32 ± 1°C.
(§4) Subsequently, the drugs are deposited to determine their kinetics. To that end, 300 µl (infinite dose) of the 1% solution of the 4 drugs in methanol were applied to each Franz cell, in triplicate. Aliquots of 0.2 ml were collected at different times (30 min, 1 h, 2 h, 4 h). The active ingredients were diluted in suitable graduated flasks and filtered through a 0.22 µm nylon filter (Cameo, Sigma-Aldrich, St Louis, U. S.A.). They were then further analyzed with a high performance liquid chromatography diode array detector (HPLC-DAD).
(§5) The software used was OpenLab. […] The ICH guidelines were followed to obtain the calibration curve, the limit of quantification (LoQ), and the limit of detection (LoD). The HPLC-DAD analytical conditions and the method for the four active ingredients are described in detail in Table 4.
(§6) The equation is as follows (1): Qn = (Cn × Vc + ∑i = 1^(n−1) (Ci×Vs))/(A) [formula]
(§7) Wherein: Qn is the cumulative amount of active ingredient released at time n (µg/cm^2); Cn is the concentration of active ingredient in the sample (µg/ml); Vc is the volume of the vertical diffusion cell (7 ml); ∑i = 1^(n−1) Ci [formula] is the sum of the API concentrations (µg/ml) determined at sampling intervals 1 to n-1; Vs is the volume of the sample, and A is the surface area of the sample (1.77 cm^2).
(§8) Two parameters were used, Qn and % API release, to obtain graphs showing absorption and penetration kinetics (Y-axis). Time or its square root (√t) is indicated on the X-axis. […] This step allowed determining the best absorption model to represent the penetration kinetics of the API through the different membranes. The model was obtained with the non-linear regression software STATGRAPHICS plus 5 (Statgraphics Technologies, Inc., Virginia, U. S.A.), and the best equation was selected based on the highest correlation coefficient corrected by the number of degrees of freedom (R2 DoF). Once having defined the model, it was possible to calculate other parameters, such as the flow (J), permeability coefficient (Kp), delay time (TI), maximum concentration (Cmax), maximum time (tmax), and area under the curve (AUC). All results are expressed as mean ± standard deviation (SD).

[2] = cited from earlier work
in vitro [3] = conditions: for Cmax at 1 % / Permea. coeff., Kp: pig; for Cmax at 1 %: Conc. Max.
From the text: as §1, §2, §3
After 1 h, the TEWL is measured again (Table 3). Table 3. Application of the composition F-MI and evaluation of transepidermal water loss, from the skin, from porcine sublingual mucosa and from the same mucosa modified by applying composition F-MI before applying the drugs.
as §4, §5, §6, §7, §8

[4] = Kinetic permeation of biocides using vertical Franz diffusion cells
Protocol: as §3, §4, §6, §7, §8
(§9) Furthermore, porcine skin permeation is studied. As mentioned in the introduction, the barrier structure of the skin differs greatly from that of the mucosae.
(§10) The biocides evaluated were fungitrol (FUN), propiconazole (PRO), and permethrin (PER) dissolved in ethanol at a concentration of 1% for each active ingredient. […] Table 9. Biocides and their physicochemical properties.
(§11) Table 10. Conditions of the method which are used in HPLC/DAD analysis for fungitrol, propiconazole, and permethrin

[5] = as above; remark: listed apart in the source
Protocol: as §3, §4, §6, §7, §8, §9, §10, §11

[6] = BCS group; cited from earlier work
[7] = sublingual mucosa with F-MI, 1% in ethanol
[8] = unmodified sublingual mucosa, 1% in ethanol
[9] = skin, 300 µl of 1% solution in methanol

For `C[C@@H]1C[C@H]2[C@@H]3CCC4=CC(=O)C=C[C@]4(C)[C@@]3(F)[C@@H](O)C[C@]2(C)[C@@]1(O)C(=O)CO` [Dexamethasone (DEX), Dexamethasone], the “Area under the curve, AUC” value (in vitro [1]) was 0.03±0.01 mg/cm^2, the Cmax at 1 % (in vitro [1]; pig) was 67400 ng/mL and the “Flow, J” value (in vitro [1]; pig, 1 %) was 5,84±3,46 µg/cm^2/h. For the same molecule, the “Latency time, LT” value (in vitro [1]; pig, 1 %) was 0,62±0,16 h, the “LogP (pH 7.4)” value ([2]; drugs, Table 2) was 1.74 and the Cmax at 1 % (in vitro [3]) was 315000 ng/mL.
In the case of `CCCC1COC(Cn2cncn2)(c2ccc(Cl)cc2Cl)O1` (centres unmarked) [Propiconazole (PRO), Propiconazole], the “Flow, J” value [4, 7] is reported as 6.62±3.74 µg/cm^2/h, the “Latency time, LT” value [4, 7] is reported as 1.66 ± 1.00 h and the “Permea. coeff., Kp” value [4, 7] is reported as 0.70±0.39 10^-3cm/h. For the same molecule, the “Flow, J” value [4, 8] was 63.92±44.92 µg/cm^2/h, the “Latency time, LT” value [4, 8] was -0.04 ± 1.68 h and the “Permea. coeff., Kp” value [4, 8] was 6.80±4.78 10^-3cm/h. For the same molecule, the “Permea. coeff., Kp” value ([5]; pig) was 0.24±0.16 10^-3cm/h, the “Flow, J” value ([5]; skin, 1% in ethanol) was 2.26±1.48 µg/cm^2/h and the “Latency time, LT” value ([5]; skin, 1% in ethanol) was 0.60 ± 0.015 h. For the same molecule, the “LogP (pH 7.4)” value ([2]; biocides, Table 9, PubChem) was 3.7.
In the case of `CC1(C)C(C=C(Cl)Cl)C1C(=O)OCc1cccc(Oc2ccccc2)c1` (centres unmarked) [Permethrin (PER), Permethrin], the Cmax at 1 % ([4]; pig) is reported as 15700 ± 20300 ng/mL, the “Permea. coeff., Kp” value ([4]; pig) is reported as 4.02±3.12 10^-3cm/h and the “Flow, J” value [4, 7] is reported as 3.85±4.00 µg/cm^2/h. The “Latency time, LT” value [4, 7] was -0.28 ± 1.77 h, the “Permea. coeff., Kp” value [4, 7] was 0.26±0.27 10^-3cm/h and the “Flow, J” value [4, 8] was 58.67±45.51 µg/cm^2/h. For the same molecule, the “Latency time, LT” value [4, 8] was -0.53 ± 1.14 h, the Cmax at 1 % ([5]; pig) was 9350 ± 110 ng/mL and the “Permea. coeff., Kp” value ([5]; pig) was 0.20±0.015 10^-3cm/h. For the same molecule, the “Flow, J” value ([5]; skin, 1% in ethanol) was 2.93±0.23 µg/cm^2/h, the “Latency time, LT” value ([5]; skin, 1% in ethanol) was -1.49 ± 0.66 h and the “LogP (pH 7.4)” value ([2]; biocides, Table 9, PubChem) was 6.5.
For `CC[C@H](C)[C@H]1O[C@]2(CC[C@@H]1C)C[C@@H]1C[C@@H](C/C=C(\C)[C@@H](O[C@H]3C[C@H](OC)[C@@H](O[C@H]4C[C@H](OC)[C@@H](O)[C@H](C)O4)[C@H](C)O3)[C@@H](C)/C=C/C=C3\CO[C@@H]4[C@H](O)C(C)=C[C@@H](C(=O)O1)[C@]34O)O2` [Ivermectin (IVE), Ivermectin], the “Flow, J” value (in vitro [1]; [9]) is given as 3.13±0.86 µg/cm^2/h, the “Latency time, LT” value (in vitro [1]; [9]) is given as 0.59 ± 0.28 h and the Group [6] is given as 4. For the same molecule, the “LogP (pH 7.4)” value ([2]; drugs, Table 2) was 5.83, the “permeability through the unmodified mucosa compared to the skin” value (in vitro [3]) was 20 times and the “Latency time, LT” value (in vitro [3]; sublingual mucosa with F-MI (70 µl deposited 1 h before), 1% solution in methanol) was 0.28 ± 0.02 h. For the same molecule, the “Flow, J” value (in vitro [3]; unmodified sublingual mucosa, 1% solution in methanol) was 63.75±1.57 µg/cm^2/h.
For `CC(C)Cc1ccc(C(C)C(=O)O)cc1` (centres unmarked) [Ibuprofen (IBU), Ibuprofen], the “Area under the curve, AUC” value (in vitro [1]) was 0.10 ± 0.01 mg/cm^2, the Cmax at 1 % (in vitro [1]; pig) was 21900 ± 1980 ng/mL and the “Permea. coeff., Kp” value (in vitro [1]; pig) was 2.05 ± 0.23 10^-3cm/h. The “Flow, J” value (in vitro [1]; pig, 1 %) was 24.79 ± 2.75 µg/cm^2/h, the “Latency time, LT” value (in vitro [1]; pig, 1 %) was -0.24 ± 0.19 h and the Group [6] was 2. For the same molecule, the “Permea. coeff., Kp” value (in vitro [3]) was 28.67±0.49 10^-3cm/h, the “Permea. coeff., Kp” value (in vitro [3]; 1 h) was 41.18±4.09 10^-3cm/h and the Cmax at 1 % (in vitro [3]) was 341000 ± 63600 ng/mL.
In the case of `Cn1c(=O)c2c(ncn2C)n(C)c1=O` [Caffeine (CAF), Caffeine], the “Area under the curve, AUC” value (in vitro [1]) is reported as 0.41±0.27 mg/cm^2, the “Conc. Max., Cmax” value (in vitro [1]) is reported as 107.23±57.7 3 µg/ml and the “Permea. coeff., Kp” value (in vitro [1]; pig) is reported as 6.06±4.12 10^-3cm/h. For the same molecule, the “Flow, J” value (in vitro [1]; pig, 1 %) was 75.09±51.32 µg/cm^2/h, the “Latency time, LT” value (in vitro [1]; pig, 1 %) was 0.65 ± 0.24 h and the Group [6] was 1. For the same molecule, the “Permea. coeff., Kp” value (in vitro [3]) was 34.55±6.56 10^-3cm/h and the “Permea. coeff., Kp” value (in vitro [3]; 1 h) was 8.28±2.48 10^-3cm/h.
For `CCCCNC(=O)OCC#CI` [Fungitrol (FUN), 3-lodo-2-propynyl butylcarbamate], the “Flow, J” value [4, 7] was 5.59±1.32 µg/cm^2/h, the “Latency time, LT” value [4, 7] was 0.65 ± 0.08 h and the “Permea. coeff., Kp” value [4, 7] was 0.61±0.14 10^-3cm/h. For the same molecule, the “Flow, J” value [4, 8] was 62.88±29.97 µg/cm^2/h, the “Latency time, LT” value [4, 8] was -0.34 ± 1.32 h and the “Permea. coeff., Kp” value [4, 8] was 6.80±3.26 10^-3cm/h. The “Flow, J” value ([5]; skin, 1% in ethanol) was 6.02±3.93 µg/cm^2/h, the “Latency time, LT” value ([5]; skin, 1% in ethanol) was 0.70 ± 0.00 h and the “Permea. coeff., Kp” value ([5]; skin, 1% in ethanol) was 1.00±0.40 10^-3cm/h. The “LogP (pH 7.4)” value ([2]; biocides, Table 9, PubChem) was 2.4.

Source: EP4494632A1, “LIPOPHILIC-BASED COMPOSITION” (Consejo Superior de Investigaciones Científicas (CSIC), priority 2023, dated 2025)
